The text below walks through data of the RepoRT retention time repository (doi:10.1016/j.scitotenv.2015.08.078).

The series in a line: RP, Waters ACQUITY UPLC BEH C18, 100 × 2.1 mm, 1.7 µm, 0.3 mL/min, estimated dead time 0.73 min; A: water + 0.1% formic acid, pH 3; B: methanol + 0.1% formic acid, pH 3; gradient (min/%B) 0/10 14/90 16/90 18/10. To be noted: stereoisomer not certain.
Turning to `CCCC1OC2CC3C4CCC5=CC(=O)C=CC5(C)C4C(O)CC3(C)C2(C(=O)CO)O1` (centres undefined) [Budesonide], the LC retention time is 10.9 min.
Take `COC(=O)Nc1nc2ccc(S(=O)c3ccccc3)cc2[nH]1` (centres undefined) [Oxfendazole]: the LC retention time was 7.31 min.
In the case of `CCOP(=O)(NC(C)C)Oc1ccc(SC)c(C)c1` (centres undefined) [Fenamiphos], the LC retention time was 11.3 min.
Turning to `COP(=S)(OC)Oc1ccc(Sc2ccc(OP(=S)(OC)OC)cc2)cc1` [Temephos (Abate)], the LC retention time was 13 min.
Take `Cn1c([N+](=O)[O-])cnc1C(C)(C)O` [Hydroxyipronidazole (IPZOH)]: the LC retention time was 4.6 min.
Take `CCN(CC)CCOC(=O)c1ccc(N)cc1` [Procaine]: the LC retention time was 2.19 min.
As for `CCC(C)c1ccccc1OC(=O)NC` (centres undefined) [Fenobucarb], the LC retention time is 9.78 min.
As to `CC(C)(C)C(O)C(Cc1ccc(Cl)cc1)n1cncn1` (centres undefined) [Paclobutrazol], the LC retention time is 10.8 min.
For `CN(C)C(=O)Nc1ccc(Cl)c(Cl)c1` [Diuron], the LC retention time is 9.72 min.
As for `COP(=S)(OC)Oc1ccc([N+](=O)[O-])cc1` [Parathion-methyl], the figure is 9.6 min; as for `COP(=O)(OC)OC1=C(Cl)C2C=CCC12` (centres undefined) [Heptenophos], 9.33 min.
For the compound `COCC(C)N(C(=O)CCl)c1c(C)csc1C` (centres undefined) [Dimethenamid], the LC retention time was 10.1 min.
As for `CCOP(=S)(OCC)SCCS(=O)(=O)CC` [Disulfoton-sulfone], the LC retention time was 8.76 min.
In the case of `COP(=O)(OC)SCn1c(=O)oc2cc(Cl)cnc21` [Azamethiphos], the LC retention time was 7.22 min.
